Results: patent publication US20050054097A1, “EX-VIVO expansion of hematopoietic system cell populations in mononuclear cell cultures” (priority 2002, published 2005)

How the values were obtained:
[1] = test system: cord blood mononuclear cells (MNC); assay: Ex-vivo expansion of CD34+ cells in mononuclear cell (MNC) cultures; CD34+ cells reselected and counted; format: cell-based, human; settings: for cumulative number of CD34+ cells: MNC culture, cytokines, TEPA 5-10 μM for first three weeks
Procedure: Sample collection and processing: Samples were obtained from umbilical cord blood after a normal full-term delivery and were frozen within 24 hours pospartum. The blood cells were thawed in Dextran buffer and incubated for 15 hours in MEM (Biological Industries, Israel) supplemented with 10% fetal calf serum (FCS; Biological Industries). The cells were then layered on Ficoll-Hypaque (density 1.077 gram/ml; Sigma) and centrifuged at 400 g for 30 minutes at room temperature. The mononuclear cells in the interface layer were then collected, washed three times in phosphate-buffered saline (PBS; Biological Industries), and re-suspended in PBS containing 0.5% human serum albumin (HSA). The cells were then split into two fractions, the first being the mononuclear cells (MNC) fraction and the second fraction was used for purifying CD34^+ cells by immunomagnetic separation using the “MiniMACS CD34^+ progenitor cell isolation kit” (Miltenyi Biotec, Auburn, Calif.) according to the manufacturer's recommendations. The purity of the CD34^+ cells obtained ranged between 95% and 98%, based on Flow Cytometry evaluation.
Ex-vivo expansion of hematopoietic stem cells: The Mononuclear cells (MNC), obtained as described hereinabove, were plated in 24-well Costar Cell Clusters (Corning Inc., Corning, N. Y.) or seeded in Culture Bags (American Fluoroseal Corp.), with alpha minimal essential medium (a-MEM) supplemented with 10% fetal bovine serum (FBS, Biological Industries), at a concentration of about 10^6 cells/ml. […]
Determination of CD34+ cells and subsets: CD34+ surface expression on short and long-term cultures initiated either with purified CD34+ cells or the entire MNC fraction was determined as follows: CD34+ cells were positively reselected (Miltenyi kit) and counted. […]
Mononuclear cells (MNC) were seeded in culture bags and were provided with nutrients and cytokines (50 ng/ml FLt3, IL-6, TPO and SCF) as described above. […] The cultures were analyzed weekly during a 12-week period for the number of cells, CFUc, CD34+ and CD34+CD38− cells. […]

[2] = test system: cord blood mononuclear cells (MNC); assay: FACS analysis of reselected CD34+ cell subsets (CD34+CD38-, CD34+Lin-) from MNC cultures; format: cell-based, human; settings: for cumulative number of CD34+CD38- cells: cytokines; for CD34+Lin- cells by FACS from reselected CD34+ cell fraction: MNC with RAR antagonists and cytokines
Procedure: Surface antigen analysis: Cells were harvested, washed with a PBS solution containing 1% bovine sera albumin (BSA) and 0.1% sodium azide (Sigma), ind stained at 4° C. for 60 minutes with fluorescein isothiocyanate or phycoerythrin-conjugated antibodies (all from Immunoquality Products, the Netherlands). The cells were then washed with the same buffer and analyzed by FACS caliber or Facstarplus flow cytometers. Cells were passed at a rate of 1000 cells/second, using saline as the sheath fluid. A 488 nm argon laser beam served as the light source for excitation. Emission of ten thousand cells was measured using logarithmic amplification, and analyzed using CellQuest software.
Reselected CD34+ cell subsets were stained for the following combination of antigens: CD34PE/CD38FITC and CD34PE/38-, 33-, 14-, 15-, 3, 4, 61, 19 (Lin) FITC.
FACS analysis results are given as percentage values of cells. Absolute numbers of subsets are calculated from the absolute number of CD34+ cells.
Determination of baseline levels of CD34^+/CD38− and CD34^+/Lin^− cells was conducted as follows: CD34+ cells were purified from 3 thawed cord blood units and stained for the above markers. The mean of these experiments was considered as the baseline value.
(§1) Total cell counts, numbers of CD34+ cells and subsets, and CFU numbers are presented as cumulative numbers, with the assumption that the cultures had not been passaged; i.e., the number of cells per ml were multiplied by the number of passages performed.

CD34+ cell cultures = settings: early acting cytokines, 5-10 μM TEPA (b8), atomic absorption; cited from earlier work
[3] = test system: cord blood mononuclear cells (MNC); assay: Morphological assessment of long-term MNC cultures (May-Grunwald/Giemsa); format: cell-based, human; settings: long-term TEPA-treated MNC cultures
From the text: Morphological assessment: Morphological characterization of the resulting culture populations was accomplished on aliquots of cells deposited on glass slides via cytospin (Cytocentrifuge, Shandon, Runcorn, UK). Cells were fixed, stained with May-Grunwald/Giemsa stain and examined microscopically.

[4] = test system: cord blood mononuclear cells (MNC); assay: Colony forming unit (CFU) ability of MNC cultures; format: cell-based, human; settings: MNC culture, cytokines, TEPA 5-10 μM for first three weeks
Procedure: as §1
Assaying Colony Forming Unit (CFU) ability: Cells were cloned in semi-solid, methylcellulose-containing medium supplemented with 2 IU/ml erythropoietin (Eprex, Cilag AG Int., Switzerland), stem cell factor and IL-3, both at 20 ng/ml, and G-CSF and GM-CSF, both at 10 ng/ml (all from Perpo Tech). Cultures were incubated for 14 days at 37° C., 5% CO2 in a humidified atmosphere.
Determination of LTC-CFUc values: The ability of the cultures to maintain self-renewal was measured by determination of the content of colony forming unit cells in the long and extended long-term cultures (LTC-CFUc), as described in the references hereinabove.

[5] = test system: cord blood mononuclear cells (MNC); assay: Ex-vivo expansion of CD34+ cells in mononuclear cell (MNC) cultures; CD34+ cells reselected and counted; format: cell-based, human; settings: for cumulative number of CD34+ cells per culture bag: cytokines, eight weeks incubation; for Number of CD34+ cells (×10^4) / Portion of CD34+ cells (%): 8 weeks
[6] = cytokines + RAR antagonist 10^-6 M, 2 weeks
[7] = cytokines + RAR antagonist 10^-6 M, 5 weeks

NCCNCCNCCNCCN [TEPA, tetraethylenepentamine]
cumulative number of CD34+ cells ([1]; after 2 weeks): non-detectable | cumulative number of CD34+ cells ([1]; after 12 weeks): over 8×10^7 cells/ml | stem and progenitor cells densities versus pre-purified CD34+ cell cultures (not treated with TEPA) ([1]; TEPA-treated MNC cultures, 12-week period): either equalized or surpassed | cumulative number of CD34+CD38- cells ([2]; MNC culture, TEPA 5-10 μM for first three weeks, after 2 weeks): non-detectable | cumulative number of CD34+CD38- cells ([2]; MNC culture, TEPA 5-10 μM for first three weeks, after 12 weeks): 2.5×10^7 cells/ml | reduction of cell copper content (CD34+ cell cultures): 30% | morphological analysis of cells from long-term cultures [3]: a high proportion of non-differentiated cells | number of CD34+ CFUs ([4]; after 2 weeks): non-detectable | number of CD34+ CFUs ([4]; after 10 weeks): 3.2×10^7 cells/ml

CCc1ccc(C2=CC(C)(C)Sc3ccc(C#Cc4ccc(C(=O)O)cc4)cc32)cc1 [RAR antagonist]
CD34+Lin- cells by FACS from reselected CD34+ cell fraction ([2]; 2 weeks after initial seeding): 78% | CD34+Lin- cells by FACS from reselected CD34+ cell fraction ([2]; 5 weeks after initial seeding): 24% | % CD34/Lin- [2, 6]: 78.4% | No of CD34+/Lin- × 10^4 [2, 6]: 132.5 × 10^4 | % CD34/Lin- [2, 7]: 24.1% | No of CD34+/Lin- × 10^4* [2, 7]: 237.8 × 10^4 | No of CD34 cells × 10^4 [5, 6]: 169 × 10^4 | No of CD34 cells × 10^4* [5, 7]: 985 × 10^4

tetraethylenepentamine-copper chelate [Cu-TEPA chelate]
cumulative number of CD34+CD38- cells ([2]; 100 μM Copper-TEPA for first three weeks, eight weeks incubation): 6.1×10^5 | Number of CD34/38- cells (×10^4) ([2]; Cu-TEPA chelate 100 μM, 8 weeks): 61 ×10^4 | cumulative number of CD34+ cells per culture bag ([5]; 50 μM Copper-TEPA for first three weeks): 12.37×10^6 cells per culture bag | cumulative number of CD34+ cells per culture bag ([5]; 100 μM Copper-TEPA for first three weeks): 32.85×10^6 cells per culture bag | Number of CD34+ cells (×10^4) ([5]; Cu-TEPA chelate 50 μM): 1237.3 ×10^4 | Portion of CD34+ cells (%) ([5]; Cu-TEPA chelate 50 μM): 1.4% | Number of CD34+ cells (×10^4) ([5]; Cu-TEPA chelate 100 μM): 3285.3 ×10^4 | Portion of CD34+ cells (%) ([5]; Cu-TEPA chelate 100 μM): 1.2%
